Among the test systems are Malme-3M; Hs-578T; HOP-92; SNB-75; M14; SF-268; SK-MEL-2; 786-0; NCI-H460; A549; OVCAR-5; COLO 205; SF-295; HCC 2998; MCF7; UO-31; SR; UACC-62; HCT-15; NCI-H226.
Common to all, as to assay: NCI-60 cell line screen, 48 h

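Values below derive from 48-hour exposures of cells grown in 96-well plates, with endpoints linearly interpolated between the two concentrations bracketing the appropriate inhibition level. GI50 is the concentration that inhibits growth by half.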 Activity calls are given as the source filed them. No stated cut-off is given here; in the data, active = GI50 up to about 1.1 µM and inactive = higher. Positions of bridges follow the written chain, without caps; N, C: chain ends. Residues, ends and D or L forms follow the SMILES beside them. Bounds are passed on as bounds.

`OCC1OC(n2cnc3c2N=CNC[C@H]3O)C(Cl)C1O` (some centres undefined): the GI50 in the assay with Malme-3M, in the assay on Hs-578T, in the assay with HOP-92, with SNB-75, in the assay with M14 and in the assay with SF-268 was > 100 µM (inactive) each time. In addition, the GI50 with SK-MEL-2, in the assay on 786-0, in the assay on NCI-H460, with A549, with OVCAR-5 and with COLO 205 was > 100 µM (inactive) each time. Besides, the GI50 with SF-295, in the assay on HCC 2998, in the assay on MCF7, with UO-31, with SR and with UACC-62 was > 100 µM (inactive) throughout. In the assay on HCT-15, the GI50 is more than 100 µM.
Regarding `CC(=O)/C=C/C=C(\C)CC/C=C(\C)CC(C)C`, the GI50 with Hs-578T is 53.5 µM (inactive); in the assay on HOP-92, 0.558 µM (active); in the assay on SNB-75, 35.2 µM (inactive); in the assay on M14, 52.2 µM (inactive); in the assay with SF-268 it was 39.7 µM (inactive); in the assay on NCI-H226 it was 26.9 µM (inactive). Also, the GI50 with SK-MEL-2 is 20 µM (inactive); with 786-0, 34 µM (inactive); in the assay on NCI-H460 it was 29.9 µM (inactive); in the assay on A549, 34 µM (inactive); in the assay on OVCAR-5, 61.2 µM (inactive); in the assay with COLO 205, 20.2 µM (inactive). Moreover, the GI50 is 30.8 µM (inactive) in the assay on SF-295; 18.4 µM (inactive) in the assay on HCC 2998; 22.8 µM (inactive) with MCF7; 76.6 µM (inactive) with UO-31; 16.1 µM (inactive) in the assay with SR; 18.1 µM (inactive) with UACC-62. Moreover, the GI50 in the assay with HCT-15 was 16 µM.
Regarding `CC(/C=N/N(C)C1=NCCCN1)=N/N(C)C1=NCCCN1`, the GI50 in the assay with Malme-3M, with Hs-578T, in the assay with HOP-92, in the assay on SNB-75, in the assay on SF-268 and in the assay on NCI-H226 was > 100 µM (inactive) throughout. In addition, the GI50 in the assay on SK-MEL-2, in the assay with 786-0, with NCI-H460, in the assay on A549, in the assay on OVCAR-5 and in the assay with COLO 205 was > 100 µM (inactive) in each case. Moreover, the GI50 in the assay on SF-295, in the assay with HCC 2998, in the assay on MCF7, in the assay with UO-31, in the assay with SR and in the assay with UACC-62 was > 100 µM (inactive) each time. This compound also showed a GI50 in the assay with HCT-15 of more than 100 µM.
Take `Cc1cccc(C)c1N1C(=O)C2c3[nH]c4ccccc4c3C3CCC(C(C)(C)C)CC3C2C1=O` (centres undefined): the GI50 is 14.4 µM (inactive) in the assay with Malme-3M; 16.6 µM (inactive) with Hs-578T; 6.32 µM (inactive) in the assay with HOP-92; 13.6 µM (inactive) in the assay on M14; 14.4 µM (inactive) with SF-268; 18.4 µM (inactive) with NCI-H226. For the same compound, the GI50 in the assay with SK-MEL-2 is 15.6 µM (inactive); in the assay with 786-0 it was 8.67 µM (inactive); with NCI-H460 it was 5.73 µM (inactive); in the assay with A549, 12.3 µM (inactive); in the assay on OVCAR-5, 24.6 µM (inactive); in the assay on COLO 205, 10.9 µM (inactive). Also, the GI50 was 17.3 µM (inactive) in the assay on SF-295; 3.85 µM (inactive) in the assay with HCC 2998; 3.47 µM (inactive) in the assay with MCF7; 10.8 µM (inactive) in the assay on UO-31; 9.91 µM (inactive) in the assay with SR; 16.1 µM (inactive) in the assay on UACC-62. In the assay with HCT-15, the GI50 was 11.4 µM.
Turning to `CC1(C)OC2C(CO)OC(n3cnc(N)nc3=O)C2O1` (centres undefined), the GI50 with Hs-578T, in the assay with HOP-92, with M14, in the assay on SF-268, in the assay with NCI-H226 and with SK-MEL-2 was > 100 µM (inactive) throughout. Further, the GI50 in the assay on 786-0, in the assay with NCI-H460, in the assay on A549, in the assay with OVCAR-5, with COLO 205 and with SF-295 was > 100 µM (inactive) each time. In addition, the GI50 with HCC 2998 was > 100 µM (inactive); with MCF7 it was > 100 µM (inactive); in the assay on UO-31, > 100 µM (inactive); with SR, > 100 µM (inactive); in the assay on UACC-62, > 100 µM (inactive); in the assay with HCT-15, more than 100 µM.
`O=C(Cc1ccc(OCc2cccc(Cl)c2)cc1)NO`: the GI50 in the assay on Hs-578T was 30 µM (inactive); in the assay with HOP-92, 41 µM (inactive); with SNB-75, 25.8 µM (inactive); in the assay on M14, 29.4 µM (inactive); in the assay with SF-268 it was 20 µM (inactive); in the assay on NCI-H226 it was 19.4 µM (inactive). The GI50 in the assay with SK-MEL-2 was 21 µM (inactive); with 786-0, 14.7 µM (inactive); in the assay on NCI-H460, 23.1 µM (inactive); in the assay on A549 it was 27.5 µM (inactive); in the assay with OVCAR-5 it was 30.3 µM (inactive); in the assay with COLO 205, 25 µM (inactive). The GI50 was 32 µM (inactive) in the assay on SF-295; 58.7 µM (inactive) with HCC 2998; 37.8 µM (inactive) with MCF7; 12.8 µM (inactive) with UO-31; 5.81 µM (inactive) in the assay on SR; 18.7 µM (inactive) with UACC-62. This compound gave a GI50 in the assay on HCT-15 of 14.1 µM.
As to `COC(=O)[C@H](C)NC(=O)[C@H](NS(=O)(=O)c1nc2ccccc2s1)c1ccccc1`, the GI50 in the assay with Hs-578T is 8.2 µM (inactive); with HOP-92 it was 12.6 µM (inactive); in the assay with SNB-75, 18.6 µM (inactive); in the assay on M14 it was 10.4 µM (inactive); with SF-268 it was 15.1 µM (inactive); in the assay with NCI-H226 it was 14.5 µM (inactive). In addition, the GI50 with SK-MEL-2 was 11.3 µM (inactive); with 786-0, 29.2 µM (inactive); with NCI-H460, 24.9 µM (inactive); in the assay with COLO 205, 13.1 µM (inactive); in the assay with SF-295, 39.1 µM (inactive); with HCC 2998, 20.1 µM (inactive). Besides, the GI50 in the assay with MCF7 was 34 µM (inactive); with UO-31, 19.7 µM (inactive); in the assay with SR it was 15.6 µM (inactive); in the assay with UACC-62, 14.9 µM (inactive); in the assay with HCT-15, 23.3 µM.
Take `CCC(C)C1NC(=O)C(CC(C)C)NC(=O)C(C(C)C)NC(=O)C2CSSCC(NC1=O)C(=O)N2` (centres undefined) (cyclo(CCVLI); disulfide 1-2; configuration not given here): the GI50 with Hs-578T was 0.043 µM (active); with HOP-92 it was 0.121 µM (active); in the assay on SNB-75 it was 0.112 µM (active); in the assay on M14, 0.277 µM (active); with SF-268 it was 0.0387 µM (active); with SK-MEL-2, 0.142 µM (active). Also, the GI50 with 786-0 is 0.157 µM (active); with NCI-H460 it was 0.116 µM (active); in the assay with A549, 0.177 µM (active); in the assay on OVCAR-5 it was 0.16 µM (active); in the assay on COLO 205 it was 0.0991 µM (active); in the assay on SF-295 it was 0.182 µM (active). Also, the GI50 with HCC 2998 is 0.082 µM (active); in the assay with MCF7, 0.0318 µM (active); in the assay with UO-31, 2.16 µM (inactive); in the assay with SR it was 0.178 µM (active); in the assay on UACC-62 it was 0.0904 µM (active); in the assay with HCT-15, 1.86 µM.
As for `C=CCOCn1cnc2c(N)ncnc21`, the GI50 with Malme-3M, in the assay on Hs-578T, in the assay on SNB-75, with M14, in the assay on SF-268 and in the assay with NCI-H226 was > 100 µM (inactive) throughout. The GI50 in the assay with SK-MEL-2, with 786-0, with NCI-H460, in the assay with A549, with OVCAR-5 and with COLO 205 was > 100 µM (inactive) throughout. Moreover, the GI50 in the assay with SF-295, in the assay on HCC 2998, in the assay with MCF7, with UO-31, with SR and with UACC-62 was > 100 µM (inactive) in each case. In the assay with HCT-15, this compound displayed a GI50 of more than 100 µM.
With `O=C1C(C(c2ccc([N+](=O)[O-])cc2)N2CCOCC2)=C(O)C(c2ccccc2)N1c1ccccc1` (centres undefined), the GI50 in the assay on Malme-3M was > 10 µM (inactive); in the assay on Hs-578T it was > 10 µM (inactive); in the assay on SNB-75, 6.14 µM (inactive); in the assay with M14 it was > 10 µM (inactive); in the assay on SF-268, > 10 µM (inactive); with NCI-H226, > 10 µM (inactive). Also, the GI50 with SK-MEL-2, in the assay with 786-0, with NCI-H460, in the assay on A549, in the assay with OVCAR-5 and in the assay with COLO 205 was > 10 µM (inactive) throughout. The GI50 in the assay with SF-295, with HCC 2998, in the assay on MCF7, in the assay with UO-31, in the assay on SR and in the assay on UACC-62 was > 10 µM (inactive) throughout. Also, the GI50 in the assay with HCT-15 was more than 10 µM.
Turning to `O=C1CC(C(O)C(O)C(O)CO)CC(=O)N1` (centres undefined), the GI50 with Malme-3M, in the assay on Hs-578T, in the assay on HOP-92, in the assay on SNB-75, in the assay on M14 and in the assay with SF-268 was > 100 µM (inactive) each time. For the same compound, the GI50 with NCI-H226, in the assay on 786-0, in the assay on NCI-H460, in the assay on A549, in the assay on OVCAR-5 and in the assay on COLO 205 was > 100 µM (inactive) in each case. The GI50 with SF-295 was > 100 µM (inactive); with HCC 2998, > 100 µM (inactive); with MCF7, > 100 µM (inactive); with UO-31, > 100 µM (inactive); in the assay with SR, > 100 µM (inactive); in the assay with HCT-15, more than 100 µM.

The values are drawn from ChEMBL document CHEMBL1201862, “PubChem BioAssay data set” (2004).
